# Experimental data reported in US9969726B2, “Metabotropic glutamate receptor negative allosteric modulators (NAMS) and uses thereof” (Sanford-Burnham Medical Research Institute, priority 2014, dated 2018).
# Read-outs that look alike come from different tables or passages of the source.
# Biological target: rat mGlu2 receptor (Rattus norvegicus (Rat), UniProt P31421)
# Assay: mGlu2 in vitro GIRK thallium flux assay
# Assay type: cell-based
# Details: NAM, 60 min compound incubation, EC80 glutamate, HEK-293 GIRK cells
# Description: All cell culture reagents were purchased from Invitrogen Corp. (Carlsbad, Calif.) unless otherwise noted. Compound activity at the group II (mGlu2 and mGlu3) mGlus was assessed using thallium flux through GIRK channels. Briefly, cells were plated into 384-well, black-walled, clear-bottomed poly-D-lysine-coated plates at a density of 15,000 cells/20 μL/well in DMEM containing 10% dialyzed FBS, 20 mM HEPES, and 100 units/mL penicillin/streptomycin (assay media). Plated cells were incubated overnight at 37° C. in the presence of 5% CO2. […] Cells were incubated for 1 h at room temperature, and the dye exchanged to assay buffer using an ELX405, leaving 20 μL/well. Test compounds were diluted to 2 times their final desired concentration in assay buffer (0.3% DMSO final concentration). […] Cell plates and compound plates were loaded onto a kinetic imaging plate reader (FDSS 6000 or 7000; Hamamatsu Corporation, Bridgewater, N.J.). Appropriate baseline readings were taken (10 images at 1 Hz; excitation, 470±20 nm; emission, 540±30 nm) and test compounds were added in a 20 μL volume and incubated for either 2.5 min or 60 min as indicated before the addition of 10 μL of thallium buffer with or without agonist. After the addition of agonist, data were collected for approximately an additional 2.5 min. Data were analyzed using Excel (Microsoft Corp, Redmond, Wash.). The slope of the fluorescence increase beginning 5 s after thallium/agonist addition and ending 15 s after thallium/agonist addition was calculated, corrected to vehicle and maximal agonist control slope values, and plotted in using either XLfit (ID Business Solutions Ltd) or Prism software (GraphPad Software, San Diego, Calif.) to generate concentration-response curves. Potencies were calculated from fits using a four-point parameter logistic equation. For concentration-response curve experiments, compounds were serially diluted 1:3 into 10 point concentration response curves and were transferred to daughter plates using an Echo acoustic plate reformatter (Labcyte, Sunnyvale, Calif.). Test compounds were applied and followed by EC80 concentrations of glutamate.
# [1] = read-out: mGlu2 EC50 (μM) (60 min)
# rat mGlu2 receptor, sequence (P31421 19-872): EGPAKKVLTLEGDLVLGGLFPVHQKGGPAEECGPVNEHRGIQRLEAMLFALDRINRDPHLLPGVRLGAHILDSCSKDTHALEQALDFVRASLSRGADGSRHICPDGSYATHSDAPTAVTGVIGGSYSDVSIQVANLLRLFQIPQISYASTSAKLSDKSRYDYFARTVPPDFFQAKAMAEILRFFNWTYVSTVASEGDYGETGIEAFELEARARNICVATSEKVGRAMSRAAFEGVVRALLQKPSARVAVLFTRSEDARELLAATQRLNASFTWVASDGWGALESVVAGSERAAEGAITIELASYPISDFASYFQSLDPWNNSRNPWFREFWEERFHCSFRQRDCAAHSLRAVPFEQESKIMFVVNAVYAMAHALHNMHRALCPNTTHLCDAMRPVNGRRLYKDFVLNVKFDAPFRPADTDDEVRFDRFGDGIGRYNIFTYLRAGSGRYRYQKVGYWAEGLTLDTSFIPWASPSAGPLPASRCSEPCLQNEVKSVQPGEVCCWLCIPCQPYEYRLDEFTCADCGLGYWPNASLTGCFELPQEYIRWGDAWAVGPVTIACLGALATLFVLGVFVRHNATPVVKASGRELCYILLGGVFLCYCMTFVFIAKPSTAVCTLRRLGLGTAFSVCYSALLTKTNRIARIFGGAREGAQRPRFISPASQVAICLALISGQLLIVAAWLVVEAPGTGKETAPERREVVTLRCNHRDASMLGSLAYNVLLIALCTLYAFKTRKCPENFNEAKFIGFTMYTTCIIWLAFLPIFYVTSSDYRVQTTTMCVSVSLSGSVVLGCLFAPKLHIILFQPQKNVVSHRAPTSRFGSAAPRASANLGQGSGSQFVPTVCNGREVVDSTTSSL
EC50 (mGlu2 EC50 (μM) (60 min)) [µM],Compound,EC50 [1] [µM]
> 10,"COC(=O)c1cccc(C2CC(=O)Nc3cc(C(F)(F)F)c(C)cc3N2)c1 (racemic) [Example 151, (±)-Methyl 3-(8-methyl-4-oxo-7-(trifluoromethyl)-2,3,4,5-tetrahydro-1H-benzo[b][1,4]diazepin-2-yl)benzoate]",–
> 30,"N#Cc1cccc(C2CC(=O)Nc3cc(C(=O)O)ccc3N2)c1 (racemic) [Example 161, 2-(3-Cyanophenyl)-4-oxo-2,3,4,5-tetrahydro-1H-benzo[b][1,4]diazepine-7-carboxylic Acid]",–
> 10,"Cc1cc2c(cc1C(F)(F)F)NC(=O)CC(c1cccc(-n3ccc4ccccc43)c1)N2 (racemic) [Example 167B, 4-(3-(1H-Indol-1-yl)phenyl)-7-methyl-8-(trifluoromethyl)-4,5-dihydro-1H-benzo[b][1,4]diazepin-2(3H)-one]",–
> 10,"Cc1cc2c(cc1C(F)(F)F)NC(=O)CC(c1cccc(CCC(=O)O)c1)N2 (single isomer, unassigned) [Example 155B, 3-(3-(8-methyl-4-oxo-7-(trifluoromethyl)-2,3,4,5-tetrahydro-1H-benzo[b][1,4]diazepin-2-yl)phenyl)propanoic acid]",–
> 10,"Cc1cc2c(cc1C(F)(F)F)NC(=O)CC(c1cccc(C(N)=O)c1)N2 (single isomer, unassigned) [Example 168A, 3-(8-Methyl-4-oxo-7-(trifluoromethyl)-2,3,4,5-tetrahydro-1H-benzo[b][1,4]diazepin-2-yl)benzamide]",–
–,"Cc1cc2c(cc1C(F)(F)F)NC(=O)CC(c1cccc(Oc3cc(F)cc(F)c3)c1)N2 (single isomer, unassigned) [Example 174B, 4-(3-(3,5-Difluorophenoxy)phenyl)-7-methyl-8-(trifluoromethyl)-4,5-dihydro-1H-benzo[b][1,4]diazepin-2(3H)-one]",> 10
4.47,"C#Cc1cccc(C2CC(=O)Nc3cc(C(F)(F)F)c(C)cc3N2)c1 (single isomer, unassigned) [Example 175B, 4-(3-Ethynylphenyl)-7-methyl-8-(trifluoromethyl)-4,5-dihydro-1H-benzo[b][1,4]diazepin-2(3H)-one]",–
–,"Fc1ccc(-c2cccc(-c3nc(-c4ccc(C(F)(F)F)nc4)cc(C(F)(F)F)n3)c2)cc1-c1nn[nH]n1 [Example 124, 2-(4′-Fluoro-3′-(2H-tetrazol-5-yl)-[1,1′-biphenyl]-3-yl)-4-(trifluoromethyl)-6-(6-(trifluoromethyl)pyridin-3-yl)pyrimidine]",1.29
–,"O=c1[nH]c(-c2cc(-c3cccc(-c4nc(-c5ccoc5)cc(C(F)(F)F)n4)c3)ccc2F)no1 [Example 133, 3-(4-Fluoro-3′-(4-(furan-3-yl)-6-(trifluoromethyl)pyrimidin-2-yl)-[1,1′-biphenyl]-3-yl)-1,2,4-oxadiazol-5(4H)-one]",0.73

Compound,EC50 (mGlu2 EC50 (μM) (60 min)) [µM],EC50 [1] [µM]
"O=C1CC(c2cccc(Br)c2)Nc2ccc(NC(=O)OCc3ccccc3)cc2N1 (racemic) [Example 158, Benzyl (2-(3-bromophenyl)-4-oxo-2,3,4,5-tetrahydro-1H-benzo[b][1,4]diazepin-7-yl)carbamate]",> 10,–
"N#Cc1cc(C2CC(=O)Nc3cc(C(=O)O)ccc3N2)ccn1 (racemic) [Example 160, 2-(2-Cyanopyridin-4-yl)-4-oxo-2,3,4,5-tetrahydro-1H-benzo[b][1,4]diazepine-7-carboxylic Acid]",> 30,–
"C#CCNC(=O)c1cccc(C2CC(=O)Nc3cc(C(F)(F)F)c(C)cc3N2)c1 (racemic) [Example 170B, 3-(8-Methyl-4-oxo-7-(trifluoromethyl)-2,3,4,5-tetrahydro-1H-benzo[b][1,4]diazepin-2-yl)-N-(prop-2-yn-1-yl)benzamide]",3.68,–
"Cc1cc2c(cc1C(F)(F)F)NC(=O)CC(c1cccc(OCc3ccccc3)c1)N2 (racemic) [Example 178, 4-(3-(Benzyloxy)phenyl)-7-methyl-8-(trifluoromethyl)-4,5-dihydro-1H-benzo[b][1,4]diazepin-2(3H)-one]",> 10,–
